Patent publication US4610994A, “1,2,3-triazole anticonvulsant drugs” (priority 1984, dated 1986)
Several values for one entry are separate records, joined by “and”; a condition that tells them apart may be missing. Equal entries are not always repeated. Entries after “also recorded” stand apart in the source; their conditions may differ. Where two headings read alike, the source gives them in different places.

What was measured:
[1] = system: subcutaneous Metrazol seizures; assay: subcutaneous Metrazol Seizure Threshold Test (sc Met) in rats; conditions: for ED97: oral, sc Met
Description: (§1) All animals were allowed free access to both food (S/L Custom Lab Diet-7) and water, except when they were removed from their cages for the experimental procedure.
(§2) The drugs were administered either orally or intraperitoneally in a volume of 0.01 ml/g body weight in mice and 0.04 ml/10 g in rats. All tests were conducted at the previously determined time of peak drug effect.
(§3) The profile of anticonvulsant activity for each substance was established by five tests: one electrical and four chemical. The electrical test employed was the maximal electroshock seizure pattern test. […] Except for the sc Strych Test, these tests measure the ability of anticonvulsants to afford complete protection against threshold seizures induced by the subcutaneous injection of the CD97 of the convulsant agent.
(§4) All convulsants were administered subcutaneously into a loose fold of skin on the back of the neck in a volume of 0.01 ml/g body weight in mice; Metrazol was injected in a volume of 0.02 ml/10 g body weight in rats. The convulsant drugs were administered at the previously determined time of peak anticonvulsant action of the drug under study. […] Except for strychnine, absence of a five-second episode of clonic spasms (threshold seizure) was taken as protection. In the case of strychnine, complete abolition of the hindleg tonic extension was taken as protection.

[2] = system: maximal electroshock seizures; assay: maximal electroshock seizure (MES) pattern test in rats
Description: as §1, §2, §3

[3] = system: subcutaneous Strychnine seizures; assay type: in vivo, mice (male albino, CF No. 1); conditions: for effectiveness by the sc Strych test: mice i.p., Compound 10 up to 300 mg/kg; for animals protected in the sc Strych test: mice, i.p.
Description: as §1, §2, §3, §4

[4] = Phase III toxicity profile (overt signs and symptoms) in mice i.p.; conditions: for Profile of acute toxicity, 1 x TD50: 1TD50; for Profile of acute toxicity, 2 x TD50: 2TD50; for Profile of acute toxicity, 4 x TD50: 4TD50
Description: (§5) The profile of toxicity for each test drug was established by the following procedures: Firstly, the minimal neurotoxic dose (TD50) was determined by the rotorod procedure at the time of peak neurotoxic effect. When a normal mouse is placed on a knurled rod one inch in diameter rotating at a speed of six rpm it can maintain its equilibrium for long periods of time. Neurological deficit is indicated by inability of the mouse to maintain its equilibrium for one minute in each of three trials on this rotating rod. […] The HD50 represents the median dose at which 50% of animals lose their righting reflex.

[5] = system: subcutaneous Metrazol seizures; assay: subcutaneous Metrazol Seizure Threshold Test (sc Met) in mice; conditions: for ED97: sc Met
Description: as §1, §2, §3, §4

[6] = system: maximal electroshock seizures; assay: maximal electroshock seizure (MES) pattern test in mice; conditions: for ED97: MES; for TPE: test not specified
Description: as §1, §2, §3

[7] = system: subcutaneous Bicuculline seizures; assay: subcutaneous Bicuculline Seizure Threshold Test (sc Bic) in mice; assay type: in vivo, mice (male albino, CF No. 1); conditions: mice i.p., Compound 10 up to 300 mg/kg
Description: as §1, §2, §3, §4

[8] = system: subcutaneous Picrotoxin seizures; assay: subcutaneous Picrotoxin Seizure Threshold Test (sc Pic) in mice; assay type: in vivo, mice (male albino, CF No. 1); conditions: mice i.p., Compound 10 up to 300 mg/kg
Description: as §1, §2, §3, §4

[9] = minimal neurotoxicity (ataxia, loss of placing response and muscle tone) in rats; conditions: rats, oral
Description: as §1, §2
(§6) The profile of toxicity for each test drug was established by the following procedures: Firstly, the minimal neurotoxic dose (TD50) was determined by the rotorod procedure at the time of peak neurotoxic effect. When a normal mouse is placed on a knurled rod one inch in diameter rotating at a speed of six rpm it can maintain its equilibrium for long periods of time. Neurological deficit is indicated by inability of the mouse to maintain its equilibrium for one minute in each of three trials on this rotating rod. Neurological deficit in rats is indicated by ataxia, loss of placing response and muscle tone.

[10] = system: maximal electro-shock seizure (MES) and subcutaneous pentylenetetrazole (Metrazole) seizure threshold (scMet); assay: Phase I anticonvulsant screening (MES test and scMet test); assay type: in vivo, mouse; conditions: for Anticonvulsant Activity Group Classification: mouse, MES and scMet tests, doses up to 300 mg/kg; for signs of neurological deficit: at effective dose levels (Class I) or 300 mg/kg (8, 13); for protection: 300 mg/kg
[11] = loss of righting reflex (HD50) in mice i.p.; set-up: species or system mice (male albino, CF No. 1)
Description: as §5

[12] = assay type: in vivo; conditions: mice, subcutaneous
Excerpt: as §3

[13] = sc convulsant dose CD97 in rats; assay type: in vivo; conditions: Rattus norvegicus, subcutaneous
Excerpt: as §3

[14] = rats, oral, higher doses; cited from earlier work
in vivo [15] = conditions: rat, po
Description: as §1, §2, §6

in vivo [16] = conditions: mouse, po
Description: as §1, §2, §6

in vivo [17] = conditions: mouse, ip
[18] = mice, i.p., 95% confidence interval
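For Rotorod TD50 in this document: mice on rotorod: neurological deficit scored when the animal cannot keep balance for 1 min in every one of three trials on a 1-inch knurled rod turning at 6 rpm.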
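For time of peak toxicity, rotorod in this document: mice on rotorod: neurological deficit scored when the animal cannot keep balance for 1 min in every one of three trials on a 1-inch knurled rod turning at 6 rpm.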

CCC1(c2ccccc2)C(=O)NC(=O)NC1=O [Phenobarbital]
ED97 [1]: 34
ED97 ([2]; Rattus norvegicus, po): 26 mg/kg
TPE ([2]; rats p.o., test not specified): five
effectiveness by the sc Strych test [3]: had to be given in toxic doses in order to protect against this chemical convulsant
effectiveness by the sc Strych test ([3]; listed as phenobarbital): effective by these tests
TD3 (mice, i.p., MES): 57
TD3 (mice, i.p., sc Met): 57
TD3 (mice, oral, MES): 58
TD3 (mice, oral, sc Met): 58
Profile of acute toxicity, 1 x TD50 [4]: Ataxia with in-
Profile of acute toxicity, 2 x TD50 [4]: Ataxia with in-
ED97 ([5]; mice, i.p.): 27
ED97 ([5]; mice, oral): 38
ED97 ([6]; mice, i.p.): 29
ED97 ([6]; mice, oral): 46
effectiveness by the sc Bic test [7]: effective by all four anticonvulsant tests
effectiveness by the sc Bic test ([7]; listed as phenobarbital): effective by these tests
effectiveness by the sc Pic test [8]: effective by all four anticonvulsant tests
effectiveness by the sc Pic test ([8]; listed as phenobarbital): effective by these tests
TD3 ([9]; MES): 14
TD3 ([9]; sc Met): 14

Fc1ccc(-n2nncc2-c2ccncc2)cc1 [Compound 4, 1-(p-Fluorophenyl)-5-(4-pyridyl)-1H--1,2,3-triazole]
Anticonvulsant Activity Group Classification [10]: II (Class II compounds show anticonvulsant activity at doses greater than 100 mg/kg or show activity at 100 mg/kg which is not reinforced by similar activity at 300 mg/kg)

Brc1ccc(-n2nncc2-c2ccccc2)cc1 [Compound 2, 1-(p-Bromophenyl)-5-phenyl-1H--1,2,3-triazole]
signs of neurological deficit [10]: do not exhibit significant signs of neurological deficit

c1ccc(-n2nncc2-c2ccncc2)cc1 [Compound 3, 1-Phenyl-5-(4-pyridyl)-1H--1,2,3-triazole]
signs of neurological deficit [10]: do not exhibit significant signs of neurological deficit

CCCC(CCC)C(=O)O [Valproate]
ED97 [1]: 188
effectiveness by the sc Strych test [3]: effective against strychnine in nontoxic doses; also recorded: effective by these tests
HD50 (righting reflex) [11, 18]: 885.53 mg/kg and 885.53(820.86-947.04) mg/kg
TD50 ([11]; mouse, in vivo, ip, mice, i.p., 95% confidence interval, read-out: HD50 (righting reflex)): 886 mg/kg
TD3 (mice, i.p., MES): 345
TD3 (mice, i.p., sc Met): 345
TD3 (mice, oral, MES): 500
TD3 (mice, oral, sc Met): 500
Profile of acute toxicity, 1 x TD50 [4]: Mild ataxia
Profile of acute toxicity, 2 x TD50 [4]: Ataxia
Profile of acute toxicity, 4 x TD50 [4]: Both animals died.
effectiveness by the sc Met test ([5]; mice, i.p.): effective by all four anticonvulsant tests
ED97 ([5]; mice, i.p.): 218
sc Met ED50 [5, 18]: 148.59(122.64-177.02) mg/kg
ED97 ([5]; mice, oral): 680
sc Met ED50 ([5]; mice, p.o.): 388.31 mg/kg
TPE ([6]; mice i.p.): one-fourth
TPE ([6]; mice p.o.): one to two
ED97 ([6]; mice, i.p.): 380
MES ED50 [6, 18]: 271.66(246.97-337.89) mg/kg
MES ED50 ([6]; mice, i.p., 95% confidence interval, listed as valproate): 271.66 mg/kg
ED97 ([6]; mice, oral): 840
MES ED50 ([6]; mice, p.o.): 664.80 mg/kg
effectiveness by the sc Bic test [7]: effective by all four anticonvulsant tests; also recorded: effective by these tests
effectiveness by the sc Pic test [8]: effective by all four anticonvulsant tests; also recorded: effective by these tests
TD3 ([9]; MES): 115
TD3 ([9]; sc Met): 115

Clc1ccc(-n2nncc2-c2ccncc2)cc1Cl [Compound 8, 1-(3,4-Dichlorophenyl)-5-(4-pyridyl)-1H--1,2,3-triazole]
protection [10]: 100%
signs of neurological deficit [10]: without any signs of neurological deficit
Anticonvulsant Activity Group Classification [10]: II (Class II compounds show anticonvulsant activity at doses greater than 100 mg/kg or show activity at 100 mg/kg which is not reinforced by similar activity at 300 mg/kg)

CN1CCc2cc3c(cc2[C@H]1[C@@H]1OC(=O)c2c1ccc1c2OCO1)OCO3 [bicuculline]
sc CD97 [12]: 2.70 mg/kg

O=C1C[C@@H]2OCC=C3CN4CC[C@]56c7ccccc7N1[C@H]5[C@H]2[C@H]3C[C@H]46 [strychnine]
sc CD97 [12]: 1.20 mg/kg

Clc1ccc(-n2nncc2-c2ccccc2)cc1 [Compound 1, 1-(p-Chlorophenyl)-5-phenyl-1H--1,2,3-triazole]
signs of neurological deficit [10]: do not exhibit significant signs of neurological deficit

Clc1ccc(-n2nncc2-c2cccnc2)cc1Cl [Compound 13, 1-(3,4-Dichlorophenyl)-5-(3-pyridyl)-1H--1,2,3-triazole]
protection [10]: 100%
signs of neurological deficit [10]: without any signs of neurological deficit
Anticonvulsant Activity Group Classification [10]: II (Class II compounds show anticonvulsant activity at doses greater than 100 mg/kg or show activity at 100 mg/kg which is not reinforced by similar activity at 300 mg/kg)

C1CCc2nnnn2CC1 [Metrazol]
ED97 [13]: 70 mg/kg
sc CD97 [12]: 85 mg/kg

Cc1cccc(-n2nncc2-c2ccncc2)c1 [Compound 17, 1-(m-Tolyl)-5-(4-pyridyl)-1H--1,2,3-triazole]
Anticonvulsant Activity Group Classification [10]: II (Class II compounds show anticonvulsant activity at doses greater than 100 mg/kg or show activity at 100 mg/kg which is not reinforced by similar activity at 300 mg/kg)

O=C1NC(=O)C(c2ccccc2)(c2ccccc2)N1 [Phenytoin]
effectiveness by the sc Met test ([1]; p.o.): ineffective
animals protected in the sc Strych test [3]: 50%
absorption from the gastrointestinal tract [14]: absorbed only to a limited extent
HD50 (righting reflex) [11, 18]: 178.34(152.93-195.45) mg/kg
HD50 (righting reflex) ([11]; mice, i.p., 95% confidence interval, listed as phenytoin): 178.34 mg/kg
time of peak toxicity (TPE), righting reflex ([11]; mouse, in vivo, ip): 12 h
TD50 (in vivo [15]): > 3000 mg/kg
time of peak toxicity, rotorod (mouse, in vivo, ip): 2 h
Profile of acute toxicity, 1 x TD50 [4]: activity, slight ataxia, fre-
Profile of acute toxicity, 2 x TD50 [4]: Mild ataxia,
effectiveness by the sc Met test ([5]; mice i.p., listed as phenytoin): did not protect against subcutaneous Metrazol seizures
effectiveness by the sc Met test ([5]; mice, i.p.): ineffective
sc Met ED50 [5, 18]: > 300 mg/kg
effectiveness by the sc Bic test [7]: ineffective
effectiveness by the sc Pic test [8]: ineffective

Clc1ccc(-n2nncc2-c2ccccn2)cc1 [Compound 14, 1-(p-Chlorophenyl)-5-(2-pyridyl)-1H--1,2,3-triazole]
signs of neurological deficit [10]: do not exhibit significant signs of neurological deficit

Brc1ccc(-n2nncc2-c2cccnc2)cc1 [Compound 11, 1-(p-bromophenyl)-5-(3-pyridyl)-1H-1,2,3-triazole]
signs of neurological deficit [10]: do not exhibit significant signs of neurological deficit

Cc1ccc(-n2nncc2-c2ccncc2)cc1 [Compound 5, 1-(p-Tolyl)-5-(4-pyridyl)-1H--1,2,3-triazole]
Anticonvulsant Activity Group Classification [10]: II (Class II compounds show anticonvulsant activity at doses greater than 100 mg/kg or show activity at 100 mg/kg which is not reinforced by similar activity at 300 mg/kg)

picrotoxin
sc CD97 [12]: 3.15 mg/kg

FC(F)(F)c1ccc(-n2nncc2-c2cccnc2)cc1 [Compound 19, 1-(p-Trifluoromethylphenyl)-5-(3-pyridyl)-1H--1,2,3-triazole]
Anticonvulsant Activity Group Classification [10]: II (Class II compounds show anticonvulsant activity at doses greater than 100 mg/kg or show activity at 100 mg/kg which is not reinforced by similar activity at 300 mg/kg)

Fc1ccc(-n2nncc2-c2cccnc2)cc1 [Compound 12, 1-(p-Fluorophenyl)-5-(3-pyridyl)-1H--1,2,3-triazole]
signs of neurological deficit [10]: do not exhibit significant signs of neurological deficit

COc1ccc(-n2nncc2-c2ccncc2)cc1 [Compound 6, 1-(p-Anisyl)-5-(4-pyridyl)-1H--1,2,3-triazole]
Anticonvulsant Activity Group Classification [10]: II (Class II compounds show anticonvulsant activity at doses greater than 100 mg/kg or show activity at 100 mg/kg which is not reinforced by similar activity at 300 mg/kg)

CCC1(C)CC(=O)NC1=O (centres unmarked) [Ethosuximide]
animals protected in the sc Strych test [3]: ≤ 62%
TD50 (in vivo [16]): 879 mg/kg
LD50 at 24 h (in vivo [17]): 1750 mg/kg
HD50 (righting reflex) ([11]; mouse, in vivo, ip): 850.61(751.19-917.93) mg/kg
TD50 ([11]; mouse, in vivo, ip, HD50 (righting reflex)): 851 mg/kg
Rotorod TD50 [18]: 440.83(383.09-485.34) mg/kg
Rotorod TD50 (mice, i.p., 95% confidence interval, listed as ethosuximide): 440.83 mg/kg
Rotorod TD50 (mouse, in vivo, ip): 44,.83(383.09-485.34) mg/kg
TD50 (mouse, in vivo, po): 879,21 mg/kg
Profile of acute toxicity, 1 x TD50 [4]: Uncoordinated
Profile of acute toxicity, 2 x TD50 [4]: Uncoordinated
Profile of acute toxicity, 4 x TD50 [4]: Uncoordinated
effectiveness by the sc Met test ([5]; mice, i.p.): effective
sc Met ED50 [5, 18]: 130.35 mg/kg and 130.35(110.99-150.45) mg/kg
sc Met ED50 ([5]; mice, p.o.): 192.21 mg/kg
protection from maximal electroshock seizures ([6]; mice, i.p.): not able to protect mice from maximal electroshock seizures
MES ED50 [6, 18]: > 1000 mg/kg
effectiveness by the sc Bic test [7]: had to be given in toxic doses to protect against sc Bic seizures
effectiveness by the sc Pic test [8]: effective
